Measured values taken from ChEMBL document CHEMBL1133765, “QSAR model for drug human oral bioavailability” (J Med Chem, 2000).

How the values were obtained:
physchem [1] = settings: octanol/water, pH 6.5
[2] = octanol/water
clinical [3] = settings: human, in vivo, po
physchem [4] = assay: physchem
clinical [5] = settings: human, in vivo, po; remark: listed apart in the source
[6] = octanol/water; remark: listed apart in the source
clinical [7] = settings: human, in vivo, po; remark: listed apart in the source
physchem [8] = settings: octanol/water

SMILES | logD (physchem [1]) | delta logD [2] | bioavailability (clinical [3]) [%] | pKa (physchem [4]) | bioavailability (clinical [5]) [%] | delta logD [6] | bioavailability (clinical [7]) [%] | logD (physchem [8]; pH 6.5) | bioavailability (clinical [7]; F) [%] | logD (physchem [8]; pH 6.5, logD)
COc1ccccc1N1CCN(CCCNc2cc(=O)n(C)c(=O)n2C)CC1 | 0.9 | -0.52 | 79 | 7.1 | – | – | – | – | – | –
OCCN1CCN(CCC=C2c3ccccc3Sc3ccc(C(F)(F)F)cc32)CC1 | 2.88 | -0.83 | 79 | 8.1 | – | – | – | – | – | –
CC(C)(C)NC[C@@H](O)COc1ccccc1C1CCCC1 | 1.35 | -0.9 | 79 | 9.3 | – | – | – | – | – | –
CCCC(=O)Nc1ccc(OCC(O)CNC(C)C)c(C(C)=O)c1 (stereo not given) [ACEBUTOLOL] | – | – | – | – | 49 | – | – | – | – | –
CC(=O)Nc1ccc(O)cc1 [ACETAMINOPHEN] | 0.51 | 0 | 79 | – | – | – | – | – | – | –
CC(C)(C)NCC(O)c1ccc(O)c(CO)c1 (stereo not given) [ALBUTEROL] | -2.69 | -0.9 | – | – | 49 | – | – | – | – | –
CC(C)COCC(CN(Cc1ccccc1)c1ccccc1)N1CCCC1 (stereo not given) [BEPRIDIL] | 1.1 | -0.9 | 79 | 9.3 | – | – | – | – | – | –
COc1ccc(CCNCC(O)COc2cccc(C)c2)cc1OC (stereo not given) [BEVANTOLOL] | 1.11 | -0.87 | 79 | 8.4 | – | – | – | – | – | –
Nc1c(CC(=O)O)cccc1C(=O)c1ccc(Br)cc1 [BROMFENAC] | 1.39 | 0.9 | 79 | 4.3 | – | – | – | – | – | –
Cc1nnc2n1-c1sc(Br)cc1C(c1ccccc1Cl)=NC2 [BROTIZOLAM] | 2.63 | -0.14 | 79 | 6.2 | – | – | – | – | – | –
CCc1cccc2cc(C(O)CNC(C)(C)C)oc12 (stereo not given) [BUFURALOL] | 1 | -0.89 | 79 | 9 | – | – | – | – | – | –
CC(C)(C)NCC(O)COc1cccc2c1CCCC2=O (stereo not given) [BUNOLOL] | -0.4 | -0.9 | 79 | 9.3 | – | – | – | – | – | –
NS(=O)(=O)c1cc(C2(O)NC(=O)c3ccccc32)ccc1Cl (stereo not given) [CHLORTHALIDONE] | 0.22 | 0 | 79 | – | – | – | – | – | – | –
CN/C(=N/CCSCc1nc[nH]c1C)NC#N [CIMETIDINE] | -0.08 | – | 79 | – | – | – | – | – | – | –
Cc1onc(-c2c(Cl)cccc2Cl)c1C(=O)N[C@@H]1C(=O)N2[C@@H]1SC(C)(C)[C@@H]2C(=O)O [DICLOXACILLIN] | -0.79 | 0.9 | 79 | 2.8 | – | – | – | – | – | –
COc1ccc([C@@H]2Sc3ccccc3N(CCN(C)C)C(=O)[C@@H]2OC(C)=O)cc1 [DILTIAZEM] | 1.47 | -0.75 | – | – | 49 | – | – | – | – | –
COc1cc2nc(N3CCN(C(=O)C4COc5ccccc5O4)CC3)nc(N)c2cc1OC (stereo not given) [DOXAZOSIN] | 1.14 | -0.25 | 79 | 6.5 | – | – | – | – | – | –
CSc1ccc(C(=O)c2[nH]c(=O)[nH]c2C)cc1 [ENOXIMONE] | 2.32 | 0 | 79 | – | – | – | – | – | – | –
CCNC(C)Cc1cccc(C(F)(F)F)c1 (stereo not given) [FENFLURAMINE] | – | – | – | 10 | – | -0.9 | 79 | 0.4 | – | –
CCOC(=O)c1ncn2c1CN(C)C(=O)c1cc(F)ccc1-2 [FLUMAZENIL] | – | – | – | 6.2 | – | -0.14 | < 20 | 1.01 | – | –

SMILES | logD (physchem [1]) | delta logD [2] | bioavailability (clinical [3]) [%] | pKa (physchem [4]) | bioavailability (clinical [5]) [%] | delta logD [6] | bioavailability (clinical [7]) [%] | logD (physchem [8]; pH 6.5) | bioavailability (clinical [7]; F) [%] | logD (physchem [8]; pH 6.5, logD)
O=c1[nH]cc(F)c(=O)[nH]1 [FLUOROURACIL] | – | – | – | 8 | – | 0.1 | 49 | -0.89 | – | –
COCCCC/C(=N\OCCN)c1ccc(C(F)(F)F)cc1 [FLUVOXAMINE] | – | – | 79 | 9.5 | – | – | – | – | – | –
CN(C)CCCN1c2ccccc2CCc2ccccc21 [IMIPRAMINE] | – | – | – | – | 49 | – | – | – | – | –
CC(C)NCC(O)c1ccc(O)c(O)c1 (stereo not given) [ISOPROTERENOL] | – | – | – | 8.7 | – | -0.88 | – | – | 49 | -2.76
COc1ccc2c(c1)N(C[C@H](C)CN(C)C)c1ccccc1S2 [LEVOMEPROMAZINE] | 1.98 | -0.89 | 79 | 9.2 | – | – | – | – | – | –
CN(C)CC(Oc1ccccc1)Oc1ccccc1 [MEDIFOXAMINE] | – | – | – | 9.2 | – | -0.89 | – | – | 49 | -0.43
CCOC(=O)C1(c2ccccc2)CCN(C)CC1 [MEPERIDINE] | 0.25 | -0.88 | 79 | – | – | – | – | – | – | –
CC(C)NCC(O)c1cc(O)cc(O)c1 (stereo not given) [METAPROTERENOL] | – | – | – | 9.3 | – | -0.9 | – | – | < 20 | -2.72
COCC(=O)O[C@]1(CCN(C)CCCc2nc3ccccc3[nH]2)CCc2cc(F)ccc2[C@@H]1C(C)C [MIBEFRADIL] | 1.25 | -0.9 | 79 | 9.3 | – | – | – | – | – | –
CN1CCN2c3ncccc3Cc3ccccc3C2C1 (stereo not given) [MIRTAZAPINE] | – | – | – | 7.1 | – | -0.55 | – | – | 79 | 2.01
O=C(NCCN1CCOCC1)c1ccc(Cl)cc1 [MOCLOBEMIDE] | 1.26 | -0.15 | 79 | 6.2 | – | – | – | – | – | –
CCOc1ccc2ccccc2c1C(=O)N[C@@H]1C(=O)N2[C@@H]1SC(C)(C)[C@@H]2C(=O)O [NAFCILLIN] | -0.84 | 0.9 | – | – | 49 | – | – | – | – | –
Oc1ccc2c3c1O[C@H]1[C@@H](O)CC[C@@]4(O)[C@@H](C2)N(CC2CCC2)CC[C@]314 [NALBUPHINE] | – | – | – | 8.7 | – | -0.88 | < 20 | -0.63 | – | –
COC(=O)C1=C(C)NC(C)=C(C(=O)OCCN(C)Cc2ccccc2)C1c1cccc([N+](=O)[O-])c1 (stereo not given) [NICARDIPINE] | – | – | – | 7.6 | – | -0.72 | – | – | 49 | 1.18
CN1CCC[C@H]1c1cccnc1 [NICOTINE] | -0.34 | -0.82 | – | – | 49 | – | – | – | – | –
CNC(=C[N+](=O)[O-])NCCSCc1csc(CN(C)C)n1 [NIZATIDINE] | – | – | – | 6.8 | – | -0.38 | – | – | > 80 | -0.08
Cc1cc2c(s1)Nc1ccccc1N=C2N1CCN(C)CC1 [OLANZAPINE] | -0.02 | -0.81 | 79 | 8 | – | – | – | – | – | –
COc1ccc2[nH]c([S+]([O-])Cc3ncc(C)c(OC)c3C)nc2c1 (stereo not given) [OMEPRAZOLE] | 2.21 | -0.02 | 79 | 5.2 | – | – | – | – | – | –
Cc1nccn1CC1CCc2c(c3ccccc3n2C)C1=O (stereo not given) [ONDANSETRON] | – | – | – | 7.3 | – | -0.61 | – | – | 79 | 1.13
Cc1onc(-c2ccccc2)c1C(=O)N[C@@H]1C(=O)N2[C@@H]1SC(C)(C)[C@@H]2C(=O)O [OXACILLIN] | -1.32 | 0.9 | – | – | 49 | – | – | – | – | –

SMILES | logD (physchem [1]) | delta logD [2] | bioavailability (clinical [3]) [%] | pKa (physchem [4]) | bioavailability (clinical [5]) [%] | delta logD [6] | bioavailability (clinical [7]) [%] | logD (physchem [8]; pH 6.5) | bioavailability (clinical [7]; F) [%] | logD (physchem [8]; pH 6.5, logD)
Fc1ccc([C@@H]2CCNC[C@H]2COc2ccc3c(c2)OCO3)cc1 [PAROXETINE] | -1.96 | -0.9 | 79 | 11.2 | – | – | – | – | – | –
CNC[C@H](O)c1cccc(O)c1 [PHENYLEPHRINE] | – | – | – | 9.8 | – | -0.9 | – | – | 49 | -3.02
O=C1NC(=O)C(c2ccccc2)(c2ccccc2)N1 [PHENYTOIN] | – | – | – | 8 | – | 0.1 | – | – | > 80 | 2.47
CC(C)NCC(O)COc1cccc2[nH]ccc12 (stereo not given) [PINDOLOL] | – | -0.88 | 79 | 8.8 | – | – | – | – | – | –
COc1cc(NC(C)CCCN)c2ncccc2c1 (stereo not given) [PRIMAQUINE] | – | – | – | 10.3 | – | -0.9 | – | – | 79 | -2.19
CN1CCN(CCCN2c3ccccc3Sc3ccc(Cl)cc32)CC1 [PROCHLORPERAZINE] | – | – | – | 7.5 | – | -0.69 | – | – | < 20 | 2.51
CC(CN1c2ccccc2Sc2ccccc21)N(C)C (stereo not given) [PROMETHAZINE] | 2.21 | -0.89 | – | – | 49 | – | – | – | – | –
CC(C)NCC(O)COc1cccc2ccccc12 (stereo not given) [PROPRANOLOL] | – | -0.9 | – | – | 49 | – | – | – | – | –
CNCCCC1c2ccccc2C=Cc2ccccc21 [PROTRIPTYLINE] | – | – | – | 8.2 | – | -0.84 | – | – | > 80 | 0.34
CCN1CCC[C@H]1CNC(=O)c1c(O)c(Cl)cc(Cl)c1OC [RACLOPRIDE] | – | – | 79 | 9.2 | – | – | – | – | – | –
Nc1nc2ccc(OC(F)(F)F)cc2s1 [RILUZOLE] | – | – | 79 | 6.5 | – | – | – | – | – | –
Oc1ccc(C(O)C2CCCCN2)cc1O (stereo not given) [RIMITEROL] | – | – | – | 9.9 | – | -0.9 | < 20 | -3.13 | – | –
CN(C/C=C/C#CC(C)(C)C)Cc1cccc2ccccc12 [TERBINAFINE] | – | – | – | 8.5 | – | -0.86 | – | – | 49 | 3.3
CC(C)(C)NC[C@H](O)COc1nsnc1N1CCOCC1 [TIMOLOL] | -0.99 | -0.9 | 79 | 9.3 | – | – | – | – | – | –
COc1cccc(C2(O)CCCCC2CN(C)C)c1 (stereo not given) [TRAMADOL] | 0.85 | -0.9 | 79 | 9.4 | – | – | – | – | – | –
O=c1n(CCCN2CCN(c3cccc(Cl)c3)CC2)nc2ccccn12 [TRAZODONE] | – | – | – | 6.7 | – | -0.33 | – | – | > 80 | 1.47
C[C@H](CS)C(=O)N1C[C@@H](Sc2ccccc2)C[C@H]1C(=O)O [ZOFENOPRILAT] | -0.64 | 0.9 | 79 | 3.7 | – | – | – | – | – | –
OCCN1CCN(CC/C=C2/c3ccccc3Sc3ccc(Cl)cc32)CC1 [ZUCLOPENTHIXOL] | 2.71 | -0.83 | 79 | 8.1 | – | – | – | – | – | –
